Columns and labels:
[1] = test system: GDF-5/type I collagen-induced chondrogenesis; assay: Inhibitors of intracellular signaling mediators on GDF-5/type I collagen-induced chondrogenesis; type: cell-based; conditions: GDF-5 in the context of type I collagen
From the text: The molecular signaling mechanism by which GDF-5 induces chondrogenesis in the context of type I collagen was also examined using well-characterized inhibitors of intracellular signaling mediators. […] The known inhibitory effect of rapamycin on activation of p70S6 kinase indicate that GDF-5/type I collagen-induced chondrogenesis is mediated through p70S6 kinase activation.

[2] = test system: FRC cells; assay: Semiquantitative PCR of aggrecan, type II collagen and type I collagen mRNA in FRC culture treated with GDF-5 in the presence of type I collagen; type: cell-based, rat; conditions: FRC with GDF-5 in the presence of type I collagen
From the text: To examine correlation of changes in cellular morphology with the process of chondrogenesis, total cellular RNA and protein were isolated from FRC culture treated with GDF-5 in the presence of type I collagen. Total cellular RNA isolated from FRC cells was subjected to a semiquantitative PCR analysis using specific primers designed to amplify aggrecan, type II collagen or type I collagen. […] Under these conditions, type I collagen mRNA expression decreased by about 20%. The expression of aggrecan and type II collagen was confirmed using slot blot analysis.

[3] = test system: FRC cells; assay: FRC in 3D collagen-based matrices of different porosity, with or without hyaluronic acid coating, semi-quantitative PCR; type: cell-based, rat; conditions: only in matrices coated with hyaluronic acid with the highest porosity (about 300 micron); GDF-5 100 ng/ml, 3 weeks
Protocol: Each matrix composite was either coated with or without hyaluronic acid, a major component of cartilage. The implants were then seeded with 1×10^5 cells per implant and cultured for 3 weeks in the presence of GDF-5 (100 ng/ml). Total RNA extracted from each implant were then subjected to semi-quantitative PCR analysis. […] Together these findings indicate that GDP-5 chondrogenesis activity is fully and potently synergized by a matrix which contain 1) high pore size (about 100-300 micron); and 2) is composed of type I collagen which is coated with hyaluronic acid.

[4] = test system: FRC cells; assay: Immunoblot of total cell lysates for type II collagen or aggrecan; type: cell-based, rat
Protocol: Total cell lysates (100 ug) were electrophoretically separated on a 8% or 5% SDSPAGE, transferred to immobilon-P and immunoblotted using antibody specific to type II collagen or aggrecan.

[5] = test system: fetal rat calvarial cells (FRC's); assay: Fetal rat calvarial cells plated on purified extracellular matrix proteins with GDF-5; chondrogenic nodule formation, alcian blue stain; type: cell-based; conditions: GDF-5 100 ng/ml
Protocol: To show in vitro application, fetal rat calvarial cells (FRC's) were plated on various purified extracellular matrix proteins in the presence of recombinant human GDF-5 (100 ng/ml) for 3 weeks and scored for differentiation at the level of morphology, overall proteoglycan synthesis and deposition, and aggrecan and type II collagen expression. […] Chondrogenic nodules stained heavily with alcian blue and were positive for type II collagen and aggrecan-expression, as judged by immunohistochemical and transcriptional analyses. Cells in monolayer that surround the nodules were negative for the chondrogenic markers.
Plastic plates were first coated with different ECM proteins including type I and II collagen, type IV collagen, or fibronectin. […] Plastic culture 12 well (Costar, Cambridge, Mass.) were coated with 0.01% (w/v) of the indicated extracellular matrix proteins for 2 hours at 37° C. After removal of nonadsorbant protein, fetal rat calvarial cells were plated at a density of 2×10^5 cells/well in DMEM containing 10% FBS. Culture plates were then maintained for 21 days in culture media supplemented with or without GDF-5 (100 ng/ml). Plates were then stained overnight with alcian blue stain (0.5% w/v in 3% acetic acid), washed and photographed. For quantitation of alcian blue, cells were solubilized in 8M urea, and the amount of stain was quantitated using spectrophotometer (Molecular Devices, Sunnyvale, Calif.).

[6] = test system: rat limb bud cells; conditions: cited from earlier work
[7] = test system: rat osteoprogenitor cells ROB-C26; conditions: cited from earlier work
[8] = test system: MC3T3-E1 cells; conditions: well differentiated osteoblastic MC3T3-E1 cells; cited from earlier work
[9] = test system: FRC; assay: FRC seeded in porous type I collagen matrix, RT-PCR and histology with alcian or Toludine blue staining; type: cell-based, rat; conditions: GDF-5 100 ng/ml, 3 weeks
Protocol: A porous matrix fabricated from type I collagen was seeded by, 1×10^5 cell per implant (2×3×3 mm). Cells embedded in matrices were then cultured for 3 weeks in culture supplemented with or without GDF-5 (100 ng/ml). Total RNA isolated from each implant were then subjected to RT-PCR. […] In parallel the implant material was subject to histological evaluation followed by alcian or Toludine blue staining. […] Under these conditions FRC cells were not able to proliferate and differentiate in the ECM in the absence of GDF-5 as measured by histological evaluation total DNA, RNA or protein content.

[10] = test system: heterodimer of receptor for BMPs; conditions: cited from earlier work
[11] = test system: Sprague-Dawley rats; assay: Rat soft tissue implants, intramuscular, alkaline phosphatase activity and histology at 14 days; type: in vivo
From the text: In vivo activity of rhGDF-5 on collagen-based matrices.
In Vivo Assays, Rat Soft Tissue Implants: Matrix/growth factor combinations were implanted either subcutaneously in the thoracic region or intramuscularly in posterior tibial muscle pouches created by blunt dissection in 8 week old male Sprague-Dawley rats. At 14 days post-surgery, implants were harvested, weighed and processed for routine histology (fixed in 10% formalin, paraffin-embedded, sectioned to 6 μm, and hematoxylin and eosin stained). Alternatively, implants were extracted and assayed for alkaline phosphatase activity.

[12] = test system: FRC; assay: Chondrogenesis by monochromatic staining of FRC cultured in the presence of type I collagen and various growth factors; type: cell-based, rat; conditions: FRC in the presence of type I collagen
Protocol: The growth and differentiation factor-induced chondrogenesis is highly specific to GDF-5. It was shown that ECM-dependent chondrogenesis by GDF-5 is highly specific, by evaluating the ability of several mitogens and prototype differentiation factors under the following conditions. Chondrogenesis was assessed by monochromatic staining of FRC cultured in the presence of type I collagen and various growth factors.

CNc1ccc2oc(C[C@H]3O[C@@]4(CC[C@H]3C)O[C@H]([C@H](C)C(=O)c3ccc[nH]3)[C@H](C)C[C@H]4C)nc2c1C(=O)O [A23187]
inhibition of ligand-dependent chondrogenesis [1]: completely inhibited

O=C(O)CN(CCOCCOCCN(CC(=O)O)CC(=O)O)CC(=O)O [EGTA]
inhibition of ligand-dependent chondrogenesis [1]: not

[Na+].[Na+].[Na+].[O]=[V]([O-])([O-])[O-] [Na3VO4]
inhibition of ligand-dependent chondrogenesis [1]: not

CCCC(=O)Nc1ncnc2c1ncn2[C@@H]1O[C@@H]2COP(=O)(O)O[C@H]2[C@H]1OC(=O)CCC [dibutyryl-cAMP]
inhibition of ligand-dependent chondrogenesis [1]: not

GDF-5: growth and differentiation factor-5, a member of the bone morphogenetic protein (BMP) family that is involved in joint development
decrease of type I collagen mRNA expression [2]: about 20% | increase of aggrecan mRNA expression [2]: ~3 | increase of type II collagen mRNA expression [2]: around 2 | expression level of type II collagen and aggrecan [3]: significant increase | expression of type II collagen or aggrecan ([4]; FRC cells cultured in the absence of type I collagen): fails to stimulate expression | steady state level of type II collagen and aggrecan ([4]; FRC cultured with type I collagen): significant increase | formation of chondrogenic cell aggregate binding alcian blue stain ([5]; ECM-coated plastic plates (0.01% w/v), 21 days): stimulated the formation of chondrogenic cell aggregate | formation of characteristic nodules ([5]; FRC cultured in the presence of vehicle alone, type IV collagen or fibronectin, 21 days): fails to stimulate the formation of characteristic nodules | chondrogenesis ([5]; FRC's plated on fibronectin, type IV collagen or tissue culture plastic, 3 weeks): failed to stimulate chondrogenesis | chondrogenic nodule formation ([5]; FRC's plated on type I or type II collagen, 3 weeks): stimulated chondrogenic nodule formation | mesenchymal aggregation and chondrogenesis [6]: stimulates | alkaline phosphatase activity [7]: stimulates | alkaline phosphatase activity [8]: fails to stimulate | expression of aggrecan and type II collagen (RT-PCR) ([9]; 1x10^5 cells per implant): induced expression | cellular morphology of FRC (alcian blue staining, cell shape) ([9]; histology): marked changes in cellular morphology | binding to heterodimer of receptor for BMPs [10]: binds | alkaline phosphatase activity and chondrogenesis ([11]; CN/HA matrices loaded with 1, 5 and 50 μg, intramuscular in rats): dose-depended increase | chondrogenesis and full terminal differentiation ([11]; mineralized collagen combined with rhGDF-5, intramuscular in rats): very little evidence

IGF-I: growth factor
stimulation of chondrogenesis [12]: failed to stimulate chondrogenesis

IGF-II: growth factor
stimulation of chondrogenesis [12]: failed to stimulate chondrogenesis

TGFb
stimulation of chondrogenesis [12]: completely failed to stimulate chondrogenesis

bFGF: growth factor
stimulation of chondrogenesis [12]: failed to stimulate chondrogenesis

From US7070942B2, “Method of inducing or enhancing chondrogenesis with extracellular matrix containing GDF-5” (DePuy Spine, Inc., priority 1998, dated 2006)
